Experimental data taken from ChEMBL document CHEMBL3885881, “DrugMatrix”.

Species on record: Rattus norvegicus
Assay: DrugMatrix - Regimen: Daily Repeat
Type: toxicity, organism-based, Sprague-Dawley
Set-up: regimen Daily Repeat, gender Male, age 6-8 weeks
Settings: in vivo, po, route oral GAVAGE, vehicle .5 % CMC; for CARBON DIOXIDE / CHLORIDE / CHOLESTEROL / CREATINE PHOSPHOKINASE / CREATININE / GLUCOSE / LACTATE DEHYDROGENASE / LIPASE / PHOSPHORUS / POTASSIUM / SODIUM / TOTAL BILIRUBIN / TOTAL PROTEIN / URIC ACID / ALANINE AMINOTRANSFERASE / ALBUMIN / ALKALINE PHOSPHATASE / ASPARTATE AMINOTRANSFERASE / BLOOD UREA NITROGEN: tissue Plasma; for ABSOLUTE BASOPHIL / ABSOLUTE EOSINOPHIL / ABSOLUTE LYMPHOCYTE / ABSOLUTE MONOCYTE / ABSOLUTE SEGMENTED NEUTROPHIL / BASOPHIL / EOSINOPHIL / ERYTHROCYTE COUNT / HEMATOCRIT / HEMOGLOBIN / LEUKOCYTE COUNT / LYMPHOCYTE / MEAN CORPUSCULAR HEMOGLOBIN / MEAN CORPUSCULAR HEMOGLOBIN CONCENTRATION / MEAN CORPUSCULAR VOLUME / MONOCYTE / NEUTROPHIL / NUCLEATED RED BLOOD CELLS / PLATELET COUNT: tissue Blood
[1] = 7 mg/kg, 120 h, dose level Low, time 5 day
[2] = 70 mg/kg, 72 h, dose level High, time 3 day
[3] = 70 mg/kg, 120 h, dose level High, time 5 day
[4] = 140 mg/kg, 72 h, dose level Low, time 3 day

NC1=NC(=O)C(c2ccccc2)O1 (configuration not stated) [PEMOLINE]
CARBON DIOXIDE [1]: 34.67 mmol/L
CHLORIDE [1]: 103 MEQ/L
CHOLESTEROL [1]: 67.67 mg/dL
CREATINE PHOSPHOKINASE [1]: 147.33 u/L
CREATININE [1]: 0.12 mg/dL
GLUCOSE [1]: 151.67 mg/dL
LACTATE DEHYDROGENASE [1]: 92.33 u/L
LIPASE [1]: 9 u/L
PHOSPHORUS [1]: 13.57 mg/dL
POTASSIUM [1]: 6.78 MEQ/L
SODIUM [1]: 146.93 MEQ/L
TOTAL BILIRUBIN [1]: 0.17 mg/dL
TOTAL PROTEIN [1]: 5.77 G/DL
URIC ACID [1]: 1.33 mg/dL
ABSOLUTE BASOPHIL [2]: 0 CELLS/uL
ABSOLUTE EOSINOPHIL [2]: 0 CELLS/uL
ABSOLUTE LYMPHOCYTE [2]: 14699.33 CELLS/uL
ABSOLUTE MONOCYTE [2]: 90.67 CELLS/uL
ABSOLUTE SEGMENTED NEUTROPHIL [2]: 1243.33 CELLS/uL
BASOPHIL [2]: 0%
EOSINOPHIL [2]: 0%
ERYTHROCYTE COUNT [2]: 5.56 x10E6/uL
HEMATOCRIT [2]: 35.23%
HEMOGLOBIN [2]: 14.27 G/DL
LEUKOCYTE COUNT [2]: 16.03 x10E3/uL
LYMPHOCYTE [2]: 91.33%
MEAN CORPUSCULAR HEMOGLOBIN [2]: 25.7 pg
MEAN CORPUSCULAR HEMOGLOBIN CONCENTRATION [2]: 40.47 G/DL
MEAN CORPUSCULAR VOLUME [2]: 63.43 fL
MONOCYTE [2]: 0.67%
NEUTROPHIL [2]: 8%
NUCLEATED RED BLOOD CELLS [2]: 0 /100WBC
PLATELET COUNT [2]: 1042 x10E3/uL
ALANINE AMINOTRANSFERASE [2]: 48 u/L
ALBUMIN [2]: 4.17 G/DL
ALKALINE PHOSPHATASE [2]: 389 u/L
ASPARTATE AMINOTRANSFERASE [2]: 92.67 u/L
BLOOD UREA NITROGEN [2]: 15.33 mg/dL
CARBON DIOXIDE [2]: 33 mmol/L
CHLORIDE [2]: 100.67 MEQ/L
CHOLESTEROL [2]: 58.33 mg/dL
CREATINE PHOSPHOKINASE [2]: 270 u/L
CREATININE [2]: 0.15 mg/dL
GLUCOSE [2]: 154 mg/dL
LACTATE DEHYDROGENASE [2]: 211.33 u/L
LIPASE [2]: 8.67 u/L
PHOSPHORUS [2]: 13.6 mg/dL
POTASSIUM [2]: 6.81 MEQ/L
SODIUM [2]: 144.87 MEQ/L
TOTAL BILIRUBIN [2]: 0.1 mg/dL
TOTAL PROTEIN [2]: 5.8 G/DL
URIC ACID [2]: 1.6 mg/dL
ABSOLUTE BASOPHIL [3]: 0 CELLS/uL
ABSOLUTE EOSINOPHIL [3]: 0 CELLS/uL
ABSOLUTE LYMPHOCYTE [3]: 16458 CELLS/uL
ABSOLUTE MONOCYTE [3]: 255.33 CELLS/uL
ABSOLUTE SEGMENTED NEUTROPHIL [3]: 886.67 CELLS/uL
BASOPHIL [3]: 0%
EOSINOPHIL [3]: 0%
ERYTHROCYTE COUNT [3]: 5.79 x10E6/uL
HEMATOCRIT [3]: 36.57%
HEMOGLOBIN [3]: 14.87 G/DL
LEUKOCYTE COUNT [3]: 17.6 x10E3/uL
LYMPHOCYTE [3]: 93%
MEAN CORPUSCULAR HEMOGLOBIN [3]: 25.7 pg
MEAN CORPUSCULAR HEMOGLOBIN CONCENTRATION [3]: 40.63 G/DL
MEAN CORPUSCULAR VOLUME [3]: 63.23 fL
MONOCYTE [3]: 1.67%
NEUTROPHIL [3]: 5.33%
NUCLEATED RED BLOOD CELLS [3]: 0.33 /100WBC
PLATELET COUNT [3]: 1251.67 x10E3/uL
ALANINE AMINOTRANSFERASE [3]: 59.67 u/L
ALBUMIN [3]: 4.33 G/DL
ALKALINE PHOSPHATASE [3]: 378.67 u/L
ASPARTATE AMINOTRANSFERASE [3]: 96.33 u/L
BLOOD UREA NITROGEN [3]: 18.67 mg/dL
CARBON DIOXIDE [3]: 33.33 mmol/L
CHLORIDE [3]: 100.33 MEQ/L
CHOLESTEROL [3]: 64 mg/dL
CREATINE PHOSPHOKINASE [3]: 276.33 u/L
CREATININE [3]: 0.23 mg/dL
GLUCOSE [3]: 139 mg/dL
LACTATE DEHYDROGENASE [3]: 306.33 u/L
LIPASE [3]: 10.67 u/L
PHOSPHORUS [3]: 12.97 mg/dL
POTASSIUM [3]: 6.82 MEQ/L
SODIUM [3]: 144.9 MEQ/L
TOTAL BILIRUBIN [3]: 0.2 mg/dL
TOTAL PROTEIN [3]: 6.03 G/DL
URIC ACID [3]: 1.9 mg/dL
BASOPHIL [4]: 0%
EOSINOPHIL [4]: 1%
ERYTHROCYTE COUNT [4]: 6.27 x10E6/uL
HEMATOCRIT [4]: 38.3%
HEMOGLOBIN [4]: 14.3 G/DL
LEUKOCYTE COUNT [4]: 13.1 x10E3/uL
LYMPHOCYTE [4]: 92%
MEAN CORPUSCULAR HEMOGLOBIN [4]: 22.8 pg
MEAN CORPUSCULAR HEMOGLOBIN CONCENTRATION [4]: 37.3 G/DL
MEAN CORPUSCULAR VOLUME [4]: 61.1 fL
MONOCYTE [4]: 1%
NEUTROPHIL [4]: 6%
PLATELET COUNT [4]: 1285 x10E3/uL
ALANINE AMINOTRANSFERASE [4]: 34.5 u/L
ALBUMIN [4]: 3.25 G/DL
ALKALINE PHOSPHATASE [4]: 286.5 u/L
ASPARTATE AMINOTRANSFERASE [4]: 93.5 u/L
BLOOD UREA NITROGEN [4]: 15.5 mg/dL
CHLORIDE [4]: 105.5 MEQ/L
CHOLESTEROL [4]: 58.5 mg/dL
CREATINE PHOSPHOKINASE [4]: 130 u/L
CREATININE [4]: 0.75 mg/dL
GLUCOSE [4]: 137.5 mg/dL
PHOSPHORUS [4]: 12.65 mg/dL
POTASSIUM [4]: 7.95 MEQ/L
SODIUM [4]: 148 MEQ/L
TOTAL PROTEIN [4]: 5.3 G/DL
